Data as given in patent publication EP1007530B1, “6-O-SUBSTITUTED ERYTHROMYCIN COMPOUNDS AND METHOD FOR MAKING SAME” (ABBOTT LABORATORIES, priority 1996, dated 1997).

Experiments:
Assay in all cases: In vitro assay of antibacterial activity (agar dilution MIC)
Format in all cases: cell-based
[1] = test system: Micrococcus luteus ATCC 4698; details: BHI agar, 35-37 °C, 20 to 24 hours, unit assumed
Procedure: (§1) Representative compounds of the present invention were assayed in vitro for antibacterial activity as follows: Twelve petri dishes containing successive aqueous dilutions of the test compound mixed with 10 mL of sterilized Brain Heart Infusion (BHI) agar (Difco 0418-01-5) were prepared. Each plate was inoculated with 1:100 (or 1:10 for slow-growing strains, such as Micrococcus and Streptococcus) dilutions of up to 32 different microorganisms, using a Steers replicator block. The inoculated plates were incubated at 35-37 °C for 20 to 24 hours, In addition, a control plate, using BHI agar containing no test compound, was prepared and incubated at the beginning and end of each test.
(§2) An additional plate containing a compound having known susceptibility patterns for the organisms being tested and belonging to the same antibiotic class as the test compound was also prepared and incubated as a further control, as well as to provide test-to-test comparability. Erythromycin A was used for this purpose.
(§3) After incubation, each plate was visually inspected. The minimum inhibitory concentration (MIC) was defined as the lowest concentration of drug yielding no growth, a slight haze, or sparsely isolated colonies on the inoculum spot as compared to the growth control. […]

[2] = test system: Pseudomonas aeruginosa DPHD-5263; details: BHI agar, 35-37 °C, 20 to 24 hours, in µg/mL (unit assumed)
Procedure: as §1, §2, §3

[3] = test system: Enterobacter aerogenes ATCC 13048; details: BHI agar, 35-37 °C, 20 to 24 hours, unit assumed
Procedure: as §1, §2, §3

[4] = test system: Providencia struartii CMX 640; details: BHI agar, 35-37 °C, 20 to 24 hours, unit assumed
Procedure: as §1, §2, §3

[5] = test system: Pseudomonas aeruginosa K799/WT; details: BHI agar, 35-37 °C, 20 to 24 hours, unit assumed
Procedure: as §1, §2, §3

Pseudomonas capacia 2961 = details: BHI agar, 35-37 °C, 20 to 24 hours, in µg/mL (unit assumed)
Procedure: as §1, §2, §3

[6] = test system: Pseudomonas aeruginosa 5007; details: BHI agar, 35-37 °C, 20 to 24 hours, unit assumed
Procedure: as §1, §2, §3

[7] = test system: Staphylococcus aureus CMX 553; details: BHI agar, 35-37 °C, 20 to 24 hours, unit assumed
Procedure: as §1, §2, §3

[8] = test system: Klebsiella pneumoniae ATCC 8045; details: BHI agar, 35-37 °C, 20 to 24 hours, unit assumed
Procedure: as §1, §2, §3

[9] = test system: Pseudomonas aeruginosa K799/61; details: BHI agar, 35-37 °C, 20 to 24 hours, unit assumed
Procedure: as §1, §2, §3

Escherichia coli SS = details: BHI agar, 35-37 °C, 20 to 24 hours, unit assumed
Procedure: as §1, §2, §3

[10] = test system: Streptococcus bovis A-5169; details: BHI agar, 35-37 °C, 20 to 24 hours, unit assumed
Procedure: as §1, §2, §3

[11] = test system: Micrococcus luteus ATCC 9341; details: BHI agar, 35-37 °C, 20 to 24 hours, unit assumed
Procedure: as §1, §2, §3

[12] = test system: Streptococcus pyogenes 930; details: BHI agar, 35-37 °C, 20 to 24 hours, unit assumed
Procedure: as §1, §2, §3

[13] = test system: Staphylococcus aureus A-5278; details: BHI agar, 35-37 °C, 20 to 24 hours, unit assumed
Procedure: as §1, §2, §3

[14] = test system: Staphylococcus epidermidis 3519; details: BHI agar, 35-37 °C, 20 to 24 hours, unit assumed
Procedure: as §1, §2, §3

Escherichia coli JUHL = details: BHI agar, 35-37 °C, 20 to 24 hours, in µg/mL (unit assumed)
Procedure: as §1, §2, §3

[15] = test system: Pseudomonas aeruginosa BMH10; details: BHI agar, 35-37 °C, 20 to 24 hours, in µg/mL (unit assumed)
Procedure: as §1, §2, §3

[16] = test system: Enterococcus faecium ATCC 8043; details: BHI agar, 35-37 °C, 20 to 24 hours, unit assumed
Procedure: as §1, §2, §3

[17] = test system: Streptococcus pyogenes PIU 2548; details: BHI agar, 35-37 °C, 20 to 24 hours, unit assumed
Procedure: as §1, §2, §3

[18] = test system: Streptococcus pyogenes EES61; details: BHI agar, 35-37 °C, 20 to 24 hours, unit assumed
Procedure: as §1, §2, §3

[19] = test system: Streptococcus agalactiae CMX 508; details: BHI agar, 35-37 °C, 20 to 24 hours, unit assumed
Procedure: as §1, §2, §3

Escherichia coli DC-2 = details: BHI agar, 35-37 °C, 20 to 24 hours, unit assumed
Procedure: as §1, §2, §3

[20] = test system: Staphylococcus aureus ATCC 6538P; details: BHI agar, 35-37 °C, 20 to 24 hours, unit assumed
Procedure: as §1, §2, §3

Escherichia coli KNK 437 = details: BHI agar, 35-37 °C, 20 to 24 hours, unit assumed
Procedure: as §1, §2, §3

[21] = test system: Staphylococcus aureus 1775; details: BHI agar, 35-37 °C, 20 to 24 hours, unit assumed
Procedure: as §1, §2, §3

[22] = test system: Staphylococcus aureus NCTC10649M; details: BHI agar, 35-37 °C, 20 to 24 hours, unit assumed
Procedure: as §1, §2, §3

[23] = test system: Staphylococcus aureus CMX 642A; details: BHI agar, 35-37 °C, 20 to 24 hours, unit assumed
Procedure: as §1, §2, §3

Escherichia coli H560 = details: BHI agar, 35-37 °C, 20 to 24 hours, unit assumed
Procedure: as §1, §2, §3

[24] = test system: Mycobacterium smegmatis ATCC 114; details: BHI agar, 35-37 °C, 20 to 24 hours, unit assumed
Procedure: as §1, §2, §3

[25] = test system: Pseudomonas aeruginosa DPHD-2862; details: BHI agar, 35-37 °C, 20 to 24 hours, unit assumed
Procedure: as §1, §2, §3

Candida albicans CCH 442 = details: BHI agar, 35-37 °C, 20 to 24 hours, unit assumed
Procedure: as §1, §2, §3

[26] = test system: Staphylococcus aureus A5177; details: BHI agar, 35-37 °C, 20 to 24 hours, unit assumed
Procedure: as §1
(§4) An additional plate containing a compound having known susceptibility patterns for the organisms being tested and belonging to the same antibiotic class as the test compound was also prepared and incubated as a further control, as well as to provide test-to-test comparability.
as §3

[27] = test system: Actinetobacter calcoaceticus CMX 669; details: BHI agar, 35-37 °C, 20 to 24 hours, unit assumed
Procedure: as §1, §4, §3

SMILES	MIC [1]	MIC [2]	MIC [3]	MIC [4]	MIC [5]	MIC (Pseudomonas capacia 2961)	MIC [6]	MIC [7]	MIC [8]	MIC [9]	MIC (Escherichia coli SS)	MIC [11]	MIC [12]	MIC [13]	MIC [14]	MIC (Escherichia coli JUHL)	MIC [15]	MIC [16]	MIC [17]	MIC [18]	further results
CC[C@H]1OC(=O)[C@H](C)[C@@H](O[C@H]2C[C@@](C)(OC)[C@@H](O)[C@H](C)O2)[C@H](C)[C@@H](O[C@@H]2O[C@H](C)C[C@H](N(C)C)[C@H]2O)[C@](C)(OCC(O)CO)C[C@@H](C)C(=O)[C@H](C)[C@@H](O)[C@]1(C)O (stereo partly shown) [Example 3, Compound of Formula (X): X is =O, R is 2.3-dihydroxypropyl]	1.56 µg/mL	> 100	> 100 µg/mL	> 100 µg/mL	> 100 µg/mL	>100	> 100 µg/mL	3.1 µg/mL	> 100 µg/mL	1.56 µg/mL	1.56 µg/mL	0.1 µg/mL	> 100 µg/mL	> 100 µg/mL	0.78 µg/mL	50	>100	0.39 µg/mL	12.5 µg/mL	0.2 µg/mL	MIC [10]: 0.2 µg/mL; MIC [19]: 0.39 µg/mL; MIC (Escherichia coli DC-2): 50 µg/mL; MIC [20]: 1.56 µg/mL; MIC (Escherichia coli KNK 437): 100 µg/mL; MIC [21]: > 100 µg/mL; MIC [22]: 1.56 µg/mL; MIC [23]: 1.56 µg/mL; MIC (Escherichia coli H560): 25 µg/mL; MIC [24]: 0.78 µg/mL; MIC [25]: > 100 µg/mL; MIC (Candida albicans CCH 442): > 100 µg/mL; MIC [26]: 50 µg/mL; MIC [27]: 12.5 µg/mL
CC[C@H]1OC(=O)[C@H](C)[C@@H](O[C@H]2C[C@@](C)(OC)[C@@H](O)[C@H](C)O2)[C@H](C)[C@@H](O[C@@H]2O[C@H](C)C[C@H](N(C)C)[C@H]2O)[C@](C)(OCC(O)CN2CCOCC2)C[C@@H](C)C(=O)[C@H](C)[C@@H](O)[C@]1(C)O (stereo partly shown) [Example 6, Comnound of Formula (X): X is =O, R is 2-hydroxy-3-(morpholin-4-yl)propyl]	1.56 µg/mL	> 100	> 100 µg/mL	> 100 µg/mL	> 100 µg/mL	> 100	> 100 µg/mL	0.78 µg/mL	> 100 µg/mL	12.5 µg/mL	0.78 µg/mL	0.1 µg/mL	> 100 µg/mL	> 100 µg/mL	0.78 µg/mL	> 100	> 100	0.39 µg/mL	6.2 µg/mL	0.05 µg/mL	MIC [19]: 0.1 µg/mL; MIC (Escherichia coli DC-2): > 100 µg/mL; MIC [20]: 0.78 µg/mL; MIC (Escherichia coli KNK 437): > 100 µg/mL; MIC [21]: > 100 µg/mL; MIC [22]: 0.78 µg/mL; MIC [23]: 1.56 µg/mL; MIC (Escherichia coli H560): 100 µg/mL; MIC [24]: 0.2 µg/mL; MIC [25]: > 100 µg/mL; MIC (Candida albicans CCH 442): > 100 µg/mL; MIC [26]: 25 µg/mL; MIC [27]: 25 µg/mL
